Measured values taken from ChEMBL document CHEMBL4651402, “Screening of ~5500 FDA-approved drugs and clinical candidates for anti-SARS-CoV-2 activity” (2021).
pIC50: −log10 of the molar value. Structures can show the parent of a compound that is named as a salt.

Tested on: SARS-CoV-2
Experiment: microbe, parasite or virus in culture
Settings: Severe acute respiratory syndrome coronavirus 2, Vero C1008, 48 h; for IC50: read-out: pIC50 (converted)

SMILES | pIC50 | IC50
O=C(O)c1cc(=O)c2ccccc2o1 [CHROMOCARB] | < 4.70 | > 20 µM
CC12C=CC(=O)C=C1CCC1C2CCC2(C)C(=O)CCC12 (stereo not given) | < 4.70 | > 20 µM
C=CC[N@@+]12CC[C@]34c5ccccc5N5/C=C6\C7N(/C=C(/C53)[C@@H](C[C@@H]41)/C(=C/CO)C2)c1ccccc1[C@@]71CC[N@@+]2(CC=C)C/C(=C\CO)[C@@H]6C[C@@H]12 (stereo not given in full) | < 4.70 | > 20 µM
O=c1[nH]cnc2c([C@@H]3N[C@H](CO)[C@@H](O)[C@H]3O)c[nH]c12 [FORODESINE] | < 4.70 | > 20 µM
Cc1ccccc1C(=O)Nc1ccc(C(=O)N2CCCC(N(C)C)c3ccccc32)cc1 (stereo not given) [MOZAVAPTAN] | < 4.70 | > 20 µM
CCn1c(=O)n(CCCN2CCN(c3cccc(Cl)c3)CC2)n[13c]1[13CH2][13CH3] | < 4.70 | > 20 µM
COc1ccc([C@]2(C#N)CC[C@@H](C(=O)O)CC2)cc1OC1CCCC1 [CILOMILAST] | < 4.70 | > 20 µM
N=C(N)c1ccc(OCCCCCOc2ccc(C(=N)N)cc2)cc1 [PENTAMIDINE] | < 4.70 | > 20 µM
CC1COc2c(N3CCN(C)CC3)c(F)cc3c(=O)c(C(=O)O)cn1c23 (stereo not given) [OFLOXACIN] | < 4.70 | > 20 µM
CC(C)C(=O)OC[C@@]1(CCl)O[C@@H](n2ccc(N)nc2=O)[C@H](F)[C@@H]1OC(=O)C(C)C [LUMICITABINE] | < 4.70 | > 20 µM
OCCc1ccccc1 [PHENYLETHYL ALCOHOL] | < 4.70 | > 20 µM
CCn1cc(C(=O)O)c(=O)c2ccc(Cc3ccccc3)nc21 [AMFONELIC ACID] | < 4.70 | > 20 µM
CC(=O)O[C@H]1CC[C@@]2(C)C(CC[C@]3(C)C2C(=O)C=C2[C@H]4C[C@@](C)(C(=O)O)CC[C@]4(C)CC[C@]23C)C1(C)C (stereo not given in full) | < 4.70 | > 20 µM
COc1c2ccccc2nc2occc12 [DICTAMNINE] | < 4.70 | > 20 µM
CCOC(=O)C1OC1C(=O)NC(CC(C)C)C(=O)N1CCN(Cc2ccc(OC)c(OC)c2OC)CC1 (stereo not given) | < 4.70 | > 20 µM
COc1ccc2c(c1)[C@]13CCCC[C@@H]1[C@H](C2)N(C)CC3 [DEXTROMETHORPHAN] | < 4.70 | > 20 µM
CCOc1nc2cccc(C(=O)O)c2n1Cc1ccc(-c2ccccc2-c2nnn[nH]2)cc1 | < 4.70 | > 20 µM
CCN(CC)CCOc1ccccc1C(=O)CCc1ccccc1 [ETAFENONE] | < 4.70 | > 20 µM
COc1ccc(-c2cc(=O)c3c(O)cc(O)cc3o2)cc1O [DIOSMETIN] | < 4.70 | > 20 µM
CCCc1c(OCC(O)COc2ccc3c(=O)cc(C(=O)O)oc3c2CCC)ccc(C(C)=O)c1O (stereo not given) [FPL-55712] | < 4.70 | > 20 µM
Cc1cc(/C=C\C#N)cc(C)c1Nc1ccnc(Nc2ccc(C#N)cc2)n1 | < 4.70 | > 20 µM
NC(CSSCC(N)C(=O)O)C(=O)O (stereo not given) | < 4.70 | > 20 µM
CSc1ccc(C(=O)c2[nH]c(=O)[nH]c2C)cc1 [ENOXIMONE] | < 4.70 | > 20 µM
CN(C)CCC=C1c2ccccc2C=Cc2ccccc21 [CYCLOBENZAPRINE] | < 4.70 | > 20 µM
CN1CCN(CC(=O)N2c3ccccc3C(=O)Nc3cccnc32)CC1 [PIRENZEPINE] | < 4.70 | > 20 µM

SMILES | pIC50 | IC50
COC(=O)C1=C(C)NC(C)=C(C(=O)OCCN(C)Cc2ccccc2)C1c1cccc([N+](=O)[O-])c1 (stereo not given) [NICARDIPINE] | < 4.70 | > 20 µM
CC(C)c1ncc([N+](=O)[O-])n1C [IPRONIDAZOLE] | < 4.70 | > 20 µM
CN1CCC/C1=N\C(=N\c1ccccc1)N1CCCC1 [PIROGLIRIDE] | < 4.70 | > 20 µM
NC(=O)O[C@@H](Cn1ncnn1)c1ccccc1Cl [CENOBAMATE] | < 4.70 | > 20 µM
O=C(O)c1cccnc1 [NIACIN] | < 4.70 | > 20 µM
CC(C)C(=O)c1c(C(C)C)nn2ccccc12 [IBUDILAST] | < 4.70 | > 20 µM
N=C(N)c1ccc(C(=O)N[C@@H](Cc2ccc(O)cc2)C(=O)N2CCC(OCC(=O)O)CC2)cc1 [LAMIFIBAN] | < 4.70 | > 20 µM
CN1CCN(C2Cc3ccccc3Sc3ccc(Cl)cc32)CC1 (stereo not given) [CLOROTEPINE] | < 4.70 | > 20 µM
O=C(c1ccc(Nc2ccnc3cc(C(F)(F)F)ccc23)cc1)N1CCN(S(=O)(=O)c2ccc(F)cc2)CC1 [LOSULAZINE] | < 4.70 | > 20 µM
CC(=O)c1ccc(C)cc1N[C@H](C(N)=O)c1c(Cl)cccc1Cl | < 4.70 | > 20 µM
O=C(OCC(O)CO)c1ccccc1Nc1ccnc2c(C(F)(F)F)cccc12 (stereo not given) [FLOCTAFENINE] | < 4.70 | > 20 µM
CC(C)(C)NCC(O)c1ccccc1Cl (stereo not given) [TULOBUTEROL] | < 4.70 | > 20 µM
CCC[C@@H]1C[C@@H](C(=O)N[C@@H]([C@H]2O[C@H](SC)[C@H](O)[C@@H](O)[C@H]2O)[C@@H](C)O)N(C)C1 [LINCOMYCIN] | < 4.70 | > 20 µM
CN1C(=O)CC(=O)N(c2ccccc2)c2cc(C(F)(F)F)ccc21 [TRIFLUBAZAM] | < 4.70 | > 20 µM
CCCCOc1ccc(C(=O)CCN2CCCCC2)cc1 [DYCLONINE] | < 4.70 | > 20 µM
C[C@@H]1NC(=O)NC1=O | < 4.70 | > 20 µM
CCc1nc(C)ccc1O [EMOXYPINE] | < 4.70 | > 20 µM
COC(=O)Nc1c(N)nc(-c2nn(Cc3ccccc3F)c3ncccc23)nc1N | < 4.70 | > 20 µM
CC[C@@H](O)C(C[C@@H](C)N(C)C)(c1ccccc1)c1ccccc1 [ALPHAMETHADOL] | < 4.70 | > 20 µM
CN1CCc2cc3c(cc2C1O)OCO3 (stereo not given) [HYDRASTININE] | < 4.70 | > 20 µM
C[N+](C)(C)C[C@H](O)CC(=O)[O-] [LEVOCARNITINE] | < 4.70 | > 20 µM
CN[C@@H]1[C@@H](O[C@H]2O[C@H](CO)[C@@H](N)[C@H](O)[C@H]2O)O[C@H]2C[C@@H](N)[C@@H](O[C@H]3[C@H](O)[C@@H](O)[C@H](N)C[C@@H]3N)O[C@@H]2[C@@H]1O | < 4.70 | > 20 µM
Nc1nc2c(ncn2COC(CO)CO)c(=O)[nH]1 [GANCICLOVIR] | < 4.70 | > 20 µM
COc1ccccc1N1CCN(CC(O)COc2cc(OC)c(OC)c(OC)c2)CC1 (stereo not given) [ENCIPRAZINE] | < 4.70 | > 20 µM
Cc1nnc(C(C)C)n1[C@H]1C[C@H]2CC[C@@H](C1)N2CC[C@H](NC(=O)C1CCC(F)(F)CC1)c1ccccc1 [MARAVIROC] | < 4.70 | > 20 µM

SMILES | pIC50 | IC50
COC(=O)/C=C/C(=O)OC [DIMETHYL FUMARATE] | < 4.70 | > 20 µM
CNC(=C[N+](=O)[O-])NCCSCc1ccc(CN(C)C)o1 [RANITIDINE] | < 4.70 | > 20 µM
CCOC(=O)COc1ccc2c(=O)cc(-c3ccccc3)oc2c1 [EFLOXATE] | < 4.70 | > 20 µM
Cc1nnc(C(CCN2CC3CCC2CC3)(c2ccccc2)c2ccccc2)o1 [NUFENOXOLE] | < 4.70 | > 20 µM
CCC(=O)OC1CCC2C3CCC4=CC(=O)CCC4(C)C3CCC12C (stereo not given) | < 4.70 | > 20 µM
CCC(=O)Oc1ccc2c(c1)CCC1C2CCC2(C)C(OC(=O)CC)CCC12 (stereo not given) | < 4.70 | > 20 µM
CN(C)c1ccc(O)c2c1C[C@H]1C[C@H]3[C@H](N(C)C)C(O)=C(C(N)=O)C(=O)[C@@]3(O)C(O)=C1C2=O [MINOCYCLINE] | < 4.70 | > 20 µM
CCC(=O)NS(=O)(=O)c1ccc(-c2c(-c3ccccc3)noc2C)cc1 [PARECOXIB] | < 4.70 | > 20 µM
CC1(C)O[C@@H]2[C@@H](CO[C@@]3(COS(N)(=O)=O)OC(C)(C)O[C@@H]23)O1 [TOPIRAMATE] | < 4.70 | > 20 µM
COc1ccc(S(=O)(=O)N(C(C)=O)c2ccccc2/C=C/c2cc[n+]([O-])cc2)cc1 [HMN-214] | < 4.70 | > 20 µM
N=C(N)NCCNS(=O)(=O)c1cccc2cnccc12 | < 4.70 | > 20 µM
NC(=O)N1c2ccccc2C2OC2c2ccccc21 (stereo not given) [CARBAMAZEPINE EPOXIDE] | < 4.70 | > 20 µM
CN1CCC[C@H]1c1cccnc1 [NICOTINE] | < 4.70 | > 20 µM
CC(=O)N(CC(C)C(=O)O)c1c(I)cc(I)c(N)c1I (stereo not given) [IOCETAMIC ACID] | < 4.70 | > 20 µM
Cc1ccc2c(c1)c1c(n2CCc2ccc(C)nc2)CCN(C)C1 [LATREPIRDINE] | < 4.70 | > 20 µM
C[C@]12CC[C@@H]3c4ccc(O)cc4CC[C@H]3[C@@H]1CC[C@@H]2O [ESTRADIOL] | < 4.70 | > 20 µM
O=c1[nH]c(=O)n([C@H]2C[C@H](O)[C@@H](CO)O2)cc1/C=C/Br [BRIVUDINE] | < 4.70 | > 20 µM
CNCCc1ccc(O)c(O)c1 [DEOXIEPINEPHRINE] | < 4.70 | > 20 µM
Nc1nc(N)c2nc(-c3ccccc3)c(N)nc2n1 | < 4.70 | > 20 µM
CCN(CC)CCOCCOC(=O)C(CC)(CC)c1ccccc1 [OXELADIN] | < 4.70 | > 20 µM
CC(=O)OC1CCC2C3CC[C@H]4CC(=O)C(C)=CC4(C)C3CCC12C (stereo not given in full) | < 4.70 | > 20 µM
COc1ccc(CCNCC(O)COc2cccc(C)c2)cc1OC (stereo not given) [BEVANTOLOL] | < 4.70 | > 20 µM
O=C(O)c1ccc(NC(=O)C(Cc2ccc(O)cc2)NC(=O)c2ccccc2)cc1 (stereo not given) | < 4.70 | > 20 µM
CC(=O)N[C@H]1C[C@H]2CC[C@@H](C1)N2Cc1ccc(Oc2nc3ncccc3s2)cc1 | < 4.70 | > 20 µM
CCOC(=O)C(CC)(C(=O)NCCN(CC)CC)c1ccccc1 (stereo not given) [FENALAMIDE] | < 4.70 | > 20 µM
